From US11129831B2, “Identification of agents displaying functional activation of dopamine D2 and D4 receptors” (Florida A&M University, priority 2017, dated 2021) come the findings set out here.

SMILES strings stand for the structures.

The subject of series [1] is other four DA receptor subtypes. The series can be described thus: Binding to the other DA receptor subtypes. The following applies: result in words.
For series [2], the system named is catalepsy. Put plainly: Catalepsy bar test.
For series [3], the target named is T1, D2R (Homo sapiens, UniProt P14416). Put plainly: cell-based. It is filed as cell-based. The following applies: for recruitment of β-arrestin-2 to the D2R: result in words; for Emax: normalized to vehicle (0%) and quinpirole (100%), read-out: β-Arrestin Emax.
T1 sequence (P14416 whole entry): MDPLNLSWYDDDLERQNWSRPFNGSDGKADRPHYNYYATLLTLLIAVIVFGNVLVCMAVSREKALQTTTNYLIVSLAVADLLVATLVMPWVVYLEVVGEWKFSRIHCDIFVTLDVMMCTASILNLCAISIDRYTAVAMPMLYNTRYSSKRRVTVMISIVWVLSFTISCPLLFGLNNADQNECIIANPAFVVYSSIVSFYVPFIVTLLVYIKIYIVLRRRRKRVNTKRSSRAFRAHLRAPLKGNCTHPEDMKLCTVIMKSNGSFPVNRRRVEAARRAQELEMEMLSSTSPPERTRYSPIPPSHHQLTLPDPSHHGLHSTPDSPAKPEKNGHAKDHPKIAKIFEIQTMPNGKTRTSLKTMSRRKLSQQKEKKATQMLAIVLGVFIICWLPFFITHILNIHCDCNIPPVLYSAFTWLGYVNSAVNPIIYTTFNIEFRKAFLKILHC
Series [4] can be described thus: Pharmacokinetics, plasma and brain levels by HPLC-PDA. The following applies: for half-life: t1/2, elimination.
In series [5] the test system is righting reflex. The series can be described thus: Righting test (sedation). Type of series: in vivo. The settings on record: rats, following CLP and bar tests.
Series [6] relates to apomorphine (APO)-induced climbing behavior. The settings on record: for mice exhibiting inhibition of climbing: at higher dosages of each agent.
The target of series [7] is T1, D2R. Type of series: binding.

What is called Cmax is the highest concentration seen after dosing. By Kp is commonly meant tissue or fluid exposure divided by exposure in the circulation. As a reminder, the half-life is how long it takes for the measured level to halve. A higher half-life goes with slow loss. As usually defined, the Emax is the maximal effect, on the per cent scale that the assay sets. What is called Ki is a dissociation constant, usually derived from enzyme kinetics or from competition with a known ligand. Read a high Ki as lower affinity. By EC50 is commonly meant the concentration that produces a half-maximal response. A low value points to greater potency.

As for `Br.Br.Br.c1cnc(N2CCN(CCCc3nc4ccccc4s3)CC2)nc1` [Compound 28, 2-(3-(4-(Pyrimidin-2-yl)piperazin-1-yl)propyl)benzo[d]thiazole trihydrobromide], the “binding affinity to the other four DA receptor subtypes” value in series [1] is “little or no binding affinity”.
Consider `Fc1ccc(CCCCN2CCN(c3ccccn3)CC2)cc1` [SYA16263], for which the “mean time on bar” value in series [2] (rats, up to 239 μmole/kg (75 mg/kg), 19×ED50apom, no catalepsy) was less than 20 s. In series [3], the “recruitment of β-arrestin-2 to the D2R” value is listed as “promotes D2-mediated β-arrestin-2 translocation”. Besides, the AUC0-t was 86 μg · h/(mL or g) in series [4] (brain, rats, ip 50 mg/kg) and 5.4 μg · h/(mL or g) in series [4] (plasma, rats, ip 50 mg/kg). For the same molecule, the tmax in series [4] (brain, rats, ip 50 mg/kg) was determined as 10 min; in series [4] (rat, in vivo, ip, 50 mg/kg), 10.2 min. In series [4] (plasma, rats, ip 50 mg/kg, used for BB), this molecule had a Cplasma of 5.23. Also, in series [4] (rat, in vivo, ip, 50 mg/kg), the Cmax came out at 63500 ng/g. The molecule also came in with a Kp at 10 min in series [4] (rat, in vivo, ip, 50 mg/kg, BB=Cbrain/Cplasma, rats, ip 50 mg/kg, at ~equilibrium point) of 12.1. Also, the half-life in series [4] (rat, in vivo, ip, 50 mg/kg, brain, rats, ip 50 mg/kg) was 174 to 186 min; in series [4] (rat, in vivo, ip, 50 mg/kg, plasma, rats, ip 50 mg/kg), 44.4 to 58.8 min. Also, the “Log BB” value in series [4] (rats, ip 50 mg/kg) is on record as 1.08. Moreover, the “brain concentration at 24-hour point” value in series [4] (rats, ip 50.0 mg/kg, 24 h) is recorded as “near or below the detection limit”. Further, the “plasma concentration at 24-hour point” value in series [4] (rats, ip 50.0 mg/kg, 24 h) is given as “below the detection limit”. Further, in series [5], the “righting after catalepsy testing” value is given as “all rats were observed to right themselves”. Also, in series [6], the “mice exhibiting inhibition of climbing” value is roughly 100%.
For `Fc1ccc(OCCCN2CCN(c3ccccn3)CC2)cc1` [SYA16264], the “mean time on bar” value in series [2] (male, Sprague-Dawley, rat, in vivo, 60 min) is less than 20 s. Also, the Emax in series [3] worked out at 75.7%. The “righting after catalepsy testing” value in series [5] is on record as “All rats righted themselves”.
`Fc1ccc(CCCCN2CCN(c3ccc(Cl)cc3)CC2)cc1` [SYA16267] had a Ki in series [7] of 0.284 ± 0.021 µM. Besides, in series [3], the Emax came to 5.1% and the “recruitment of β-arrestin-2 to the D2R” value was “significant loss of the ability”. Also, the EC50 in series [3] (β-arrestin-2 recruitment to D2R) was found to be 0.248 µM.
Take `Fc1ccc(CCCCN2CCN(c3ncccn3)CC2)cc1` [SYA16268]: in series [3], the Emax turned out to be 71.9%.
As to `O=C(CCCN1CCC(O)(c2ccc(Cl)cc2)CC1)c1ccc(F)cc1` [haloperidol], the “catalepsy at 6×ED50 (FIG. 10B)” value in series [2] (6×ED50 values, result in words) was “significant catalepsy”. In series [6], the “mice exhibiting inhibition of climbing” value was roughly 100%. Further, the “antipsychotic activity in animal models of schizophrenia (FIG. 10A)” value in series [6] (result in words) is given as “dose-dependent antipsychotic activity”.
